“Also recorded” adds a separate entry of the source.
How the values were obtained:
Format in all cases: in vivo
male Ts65Dn mice [1] = test: T-maze spontaneous alternation; conditions: for effect on T-maze spontaneous alternation deficit: xamoterol 3 mg/kg s.c.
Description: (§1) The T-maze had 3 equal arms (30 cm length, 10 cm width, and 20 cm height). The start arm and 2 goal arms had guillotine gates. This test was based on the rodents' preference to experience a new arm of the T-maze instead of a familiar one ([…], 1998). In each trial, the mouse was placed in the start arm. The gate was then opened and the mouse was able to freely explore the arms. As soon as the mouse entered one goal arm, the sliding gate of the other goal arm closed. The mouse eventually returned to the start arm and the next trial was started. In the next trial, the mouse may recognize the previously chosen goal arm and choose to explore a new arm rather than revisit the previously visited arm. This trial was repeated 11 times per day for 3 consecutive days, for a total of 33 trials. The maze was cleaned with 50% ethanol between trials to eliminate odor. Percent of alternation (number of turns in each goal arm) was used for analysis. This protocol has been described before by Belichenko et al. (2009) and is modified from a Deacon and Rawlins (2006) protocol (Deacon and Rawlins, 2006; Belichenko et al., 2009). […] In this part of the study, activity chamber and three cognitive tests, including T-maze spontaneous alternation, contextual fear conditioning (CFC), and novel object recognition were performed. In T-maze spontaneous alternation and contextual fear conditioning, both Ts65Dn and 2N male mice were divided into three treatment groups including normal saline (Vehicle), xamoterol, and betaxolol plus xamoterol groups. In the novel object recognition test, both Ts65Dn and 2N male mice were divided into two treatment groups, normal saline and xamoterol. The T-maze was performed exactly as previously described. […] On the first day (training day), animals were placed in the fear conditioning chamber, and after a 3-minute pre-shock period, they were exposed to 5 shocks (2 s, 0.5 mA,) with inter-trial intervals of 80 seconds and no tone. On the second day, the animals first received xamoterol, xamoterol plus betaxolol, or saline injection, and one hour later, they were placed in the same chamber for 5 minutes. Similar to the previous description of fear conditioning, freezing was defined as the complete lack of motion for a minimum of o.75 second. The Novel Object Recognition task is conducted in an open field arena (40 cm×40 cm). Mice were habituated in the testing room for 1 hour followed by 5 minutes habituation inside the arena without any objects. On 4th day animals were introduced 3 times to arena with 3 identical subjects for 10 minutes with 3 minutes inter trial intervals. On 5th day (24 hours after trainings) one of the objects replaced by a novel one and the time sniffing of each object were used for analysis. For testing the role of β1 adrenergic system, xamoterol and betaxolol (Tocris Bioscience, Ellisville, Mo.) were injected subcutaneously using 10 ml/kg normal saline as vehicle. Xamoterol, (3 mg/kg) was given one hour before testing and betaxolol (1 mg/kg) was given 30 minutes before testing.

male 2N mice [2] = test: T-maze spontaneous alternation; conditions: xamoterol 3 mg/kg s.c. 1 h, betaxolol 1 mg/kg s.c. 30 min before testing
Description: as §1

C57Bl/6J mice = test: Contextual fear conditioning memory retrieval (FIG. 10A, B); conditions: betaxolol 1 mg/kg s.c.
Procedure: In all experiments xamoterol 3 mg/kg, atenolol 3 mg/kg, and betaxolol 1 mg/kg were injected subcutaneously. […] Results are shown as mean+SEM (ns=not significant, *=p<0.05, and **=p<0.01).

male Ts65Dn mice [3] = test: Exploratory activity in novel environment (Activity Chamber); conditions: for effect on locomotor activity (total ambulatory distance moved): xamoterol 3 mg/kg s.c.
Procedure: (§2) The Activity Chamber (Med associates Inc., St. Albans, Vt.) was used for the evaluation of general activity, gross locomotor activity, and exploratory behavior. Assessment took place in a square arena, 43.2×43.2 cm, with 3 planes of infrared detectors within a specially designed sound attenuating chamber, 66×55.9×55.9 cm, under dim light. The animal was placed in the center of the testing arena and allowed to move freely for 30 minutes while being tracked by an automated tracking system. Distance moved, velocity, resting time, and vertical count (rearing) were recorded. […] In this part of the study, activity chamber and three cognitive tests, including T-maze spontaneous alternation, contextual fear conditioning (CFC), and novel object recognition were performed. In T-maze spontaneous alternation and contextual fear conditioning, both Ts65Dn and 2N male mice were divided into three treatment groups including normal saline (Vehicle), xamoterol, and betaxolol plus xamoterol groups. In the novel object recognition test, both Ts65Dn and 2N male mice were divided into two treatment groups, normal saline and xamoterol. The T-maze was performed exactly as previously described. […] On the first day (training day), animals were placed in the fear conditioning chamber, and after a 3-minute pre-shock period, they were exposed to 5 shocks (2 s, 0.5 mA,) with inter-trial intervals of 80 seconds and no tone. On the second day, the animals first received xamoterol, xamoterol plus betaxolol, or saline injection, and one hour later, they were placed in the same chamber for 5 minutes. Similar to the previous description of fear conditioning, freezing was defined as the complete lack of motion for a minimum of o.75 second. The Novel Object Recognition task is conducted in an open field arena (40 cm×40 cm). Mice were habituated in the testing room for 1 hour followed by 5 minutes habituation inside the arena without any objects. On 4th day animals were introduced 3 times to arena with 3 identical subjects for 10 minutes with 3 minutes inter trial intervals. On 5th day (24 hours after trainings) one of the objects replaced by a novel one and the time sniffing of each object were used for analysis. For testing the role of β1 adrenergic system, xamoterol and betaxolol (Tocris Bioscience, Ellisville, Mo.) were injected subcutaneously using 10 ml/kg normal saline as vehicle. Xamoterol, (3 mg/kg) was given one hour before testing and betaxolol (1 mg/kg) was given 30 minutes before testing.

male 2N mice [4] = test: as above
Procedure: as §2

[5] = xamoterol 3 mg/kg s.c. one hour before testing

SMILES: O=C(NCCNCC(O)COc1ccc(O)cc1)N1CCOCC1 (stereo not drawn) [xamoterol]
- effect on T-maze spontaneous alternation deficit (male Ts65Dn mice [1]): completely rescue; also recorded: rescued
- % of Spontaneous Alternation in T-maze, Mean ± SEM (male Ts65Dn mice [1]; xamoterol 3 mg/kg s.c. 1 h, betaxolol 1 mg/kg s.c. 30 min before testing): 60.4 ± 4.5%
- effect on T-maze spontaneous alternation deficit (male Ts65Dn mice [1]; listed as Xamoterol): rescued
- effect on T-maze spontaneous alternation deficit (male Ts65Dn mice [1]; listed as Xamoterole): Xamoterole can rescue the deficit in
- % of Spontaneous Alternation in T-maze, Mean ± SEM (male 2N mice [2]): 64.4 ± 2.1%
- reversal of betaxolol-induced impairment of memory retrieval (C57Bl/6J mice): reverse the impairment dose-dependently
- effect on locomotor activity (total ambulatory distance moved) (male Ts65Dn mice [3]): no significant effect
- Total Ambulatory Distance Moved in Activity Chamber (cm), Mean ± SEM (male Ts65Dn mice [3]; [5]): 3878 ± 765 cm
- effect on locomotor activity (total ambulatory distance moved) (male Ts65Dn mice [3]; listed as Xamoterol): did not show a significant effect
- effect on locomotor activity (total ambulatory distance moved) (male Ts65Dn mice [3]; listed as Xamoterole): Xamoterole has no effect on activity
- effect on locomotor activity (total ambulatory distance moved) (male 2N mice [4]; xamoterol 3 mg/kg s.c.): no significant effect
- Total Ambulatory Distance Moved in Activity Chamber (cm), Mean ± SEM (male 2N mice [4]; [5]): 2554 ± 192 cm
